{"source": "patent US9422235B2", "about": "“Sulfonamide derivatives with therapeutic indications” (Pharmos Corporation, priority 2006, dated 2016)", "key": {"human CB2 receptor": {"target": "human CB2 receptor (Homo sapiens (Human), UniProt P34972)", "sequence (P34972 whole entry)": "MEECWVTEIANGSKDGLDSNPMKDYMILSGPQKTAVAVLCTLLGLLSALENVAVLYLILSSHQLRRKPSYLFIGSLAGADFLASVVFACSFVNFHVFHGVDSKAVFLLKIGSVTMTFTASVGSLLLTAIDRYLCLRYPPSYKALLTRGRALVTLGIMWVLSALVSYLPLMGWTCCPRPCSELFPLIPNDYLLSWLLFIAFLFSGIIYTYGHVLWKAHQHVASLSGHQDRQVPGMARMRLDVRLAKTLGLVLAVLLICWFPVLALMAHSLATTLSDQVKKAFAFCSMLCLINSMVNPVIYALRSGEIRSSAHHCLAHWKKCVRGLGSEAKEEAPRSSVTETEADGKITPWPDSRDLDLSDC", "test": "[35S]GTPγS-binding assay, functional activity at the human CB2 receptor", "type": "biochemical", "settings": "Cell line C2-4", "method": "Functional activity of compounds of the invention toward the cannabinoid receptors was determined by stimulation of [^35S]-GTPγS binding using membranes from HEK-293 cells expressing the hCB1 receptor and membranes expressing the hCB2 receptor derived from either Sf9 (PerkinElmer) or from HEK-293 cells. Activities were compared to that of the known cannabinoid full agonist CP55940 (Alexis). The purpose of this experiment is to determine the potency of the compounds of the invention as agonists or antagonists toward each of the receptor tested.\n[^35]-GTPγS binding reactions were performed at 30° C. in 96-well plates containing 5-10 μg membrane protein suspended in 0.1 ml binding buffer (20 mM HEPES-NaOH, pH 7.4, 5 mM MgCl2, 100 mM NaCt, 0.2% (w/v) bovine serum albumin) supplemented with 50 μM GDP and 0.06 nM-10 μM of the compound being tested. Binding was initiated by the addition of [^35S]GTPγS (0.3 nM final concentration). Incubations were performed for 90 minutes and were terminated by filtration on GF/C filter plates (PerkinElmer). Filters were washed ten times with ice-cold wash buffer (20 mM HEPES-NaOH, pH 7.4, 10 mM sodium pyrophosphate). Non-specific binding was measured in the presence of 15 μM GTPγS.\nAssays were performed in duplicates. Data was analyzed by plotting on the X axis the log concentration against percent of specific [^35S]GTPγS binding out of basal [^35S]GTPγS binding on the Y axis, non-linear regression is then performed using GraphPad Prism, version 3.0 (GraphPad, San Diego, Calif.) to calculate the EC50 and Emax of the compound. The EC50 value represents the concentration at which there is 50% [^35S]GTPγS binding and the Emax value the upper plateau of the curve.\nCP55940 is a full agonist of the human and rat CB2 receptors. […] Full or partial agonism at the receptor was determined relative to the Emax value of CP55940."}, "Male Sprague Dawley rats [1]": {"test_system": "Male Sprague Dawley rats", "test": "Chronic constriction induced (CCI) model of neuropathic pain, mechanical hyperalgesia", "type": "in vivo, rat", "settings": "10 mg/kg, s.i.d, 14 days", "method": "The analgesic activity of compounds of the invention is assessed in a chronic constriction induced (CCI) model of neuropathic pain. A peripheral neuropathy is induced in the left hind limb of rats following a chronic constriction of the sciatic nerve according to Bennet et al. (Bennet, G. J. & Xie, Y-K., Pain 33: 87-107, 1988). The development of mechanical hyperalgesia is monitored using an established behavioral test analgesy meter or dynamic planter aesthesiometer.\nPre-surgery baseline values are ascertained as the mean of 2 pre-surgery values. Once the baseline values are established, the animals are surgically prepared by constricting the left sciatic nerve with 4-0 chromic catgut loose ligatures. […]\nThe design is randomized, performed in a masked fashion as to whether drug or vehicle is being given. […] On the testing day, 24 hours after administration period lapsed, the differences between ipsilateral and contralateral hind leg thresholds were measured in grams using the Dynamic planter aesthesiometer or analgesy meter (Ugo basile).\nResults are expressed as mean±SEM for each treatment group and the differences among those groups are analyzed by analysis of variance (ANOVA) followed by post-hoc analysis using Tukey's test. […]"}, "Male Sprague Dawley rats [2]": {"test_system": "Male Sprague Dawley rats", "test": "CFA-induced acute inflammatory pain, mechanical stimulus (Dynamic Plantar Aesthesiometer)", "type": "in vivo, rat", "settings": "three hours post administration", "method": "Acute Inflammatory Pain. The purpose of this study is to test the analgesic activity of the compounds in inflammatory pain. Inflammatory pain is nociceptive in nature, wherein the pain sensation is often perceived for longer period than in acute pain. In the present model the duration of the preventive activity of compounds against inflammatory acute pain was assessed for up to about three hours post-drug administration. Inflammatory pain and paw edema were induced by intraplantar injection of 50% Complete Freund's Adjuvant (CFA) suspension in the animal hind paw. […]\nPrior to, 24 hours post induction of inflammatory pain and one and three hours after drug administration, the animals reactions to pain stimuli were tested by mechanical stimulus. The mechanical (tactile) analgesia was assessed using a Dynamic Plantar Aesthesiomether (Ugo Basile Model 73400-002). […]\nThe results are presented as the force needed for hind paw withdrawal before surgery, 24 hours post surgery and 1 and 3 hours post drug administration. Results are expressed as mean±SEM for each treatment group and the differences among those groups are analyzed by analysis of variance (ANOVA). […]\nThe baseline values for the force to be applied for left hind paw withdrawal following mechanical stimuli is about 30 gram before inflammatory pain induction. […] Results, expressed as Force measured in grams, are depicted in FIG. 3."}, "female BALB/c mice": {"test_system": "female BALB/c mice", "test": "Dextran Sulfate Salt (DSS)-induced acute colitis", "type": "in vivo, mouse", "settings": "for % Survival / Clinical score / Percentage change in body weight: i.p.", "description": "In order to test the activity of compounds of the invention in an animal model of inflammatory bowel disease, female BALB/c mice 9-12 week old (Harlan, Israel) were used for Dextran Sulfate Salt (DSS)-induced acute colitis studies. Mice (ten per treatment group) were provided with a solution of tap water containing 5% DSS (MW. 36000-50000; MP Biomedicals, LLC) ad libitum over an 8 day period. The DSS solution was replenished every other day and switched to tap water at day 8. Body weight was measured daily. The clinical scores combined both macroscopic (diarrhea, body weight, mortality) as well as microscopic (pathological) scores. Diarrhea score in the studies for each animal represented the daily summary of stool consistency (scored as: 0, normal; 1, soft but still formed; 2, very soft; 3, diarrhea) and the presence of blood in stool (scored: 0, None; 1, visible blood traces in stool; 2, signs of blood; 3, rectal bleeding). At the end of experiment animals were euthanized and their colons are examined for signs of pathological damage. The pathological scores, colon length and weight were determined from the cecum to the anus (scored: 0, normal; 1, slight inflammation; 2, moderate inflammation and/or edema; 3, heavy inflammation and/or ulceration and/or edema).\nTwo compounds were tested in DSS-induced colitis in mice, compounds 4 and 58. […] Results are expressed as mean ± SEM for each treatment group and the differences among those groups are analyzed by T-test. Two crosshatches indicate a p value below 0.01 and three indicate a p value below 0.001. Asterisks denote statistical significant weight loss relative to animal weight in the beginning of the experiment.\nAlternatively, compound 58 (30 mg/kg) was administered orally from the first day of DSS administration (day 1) until the end of the experiment (day 10)."}}, "note": "Like-named read-outs stand apart in the source and are kept apart here.", "data": [{"smiles": "COc1cc(Nc2ccc(S(=O)(=O)NCC3CC3)c(C(F)(F)F)c2)cc(OC)c1", "note": "[Compound 4, N-Cyclopropylmethyl-4-(3,5-dimethoxy-phenylamino)-2-trifluoromethyl-benzenesulfonamide]", "values": [{"measurement": "Emax", "setting": "human CB2 receptor; Emax of compound divided by Emax of CP55940, read-out: % Activity (relative to CP55,940)", "value": 51, "unit": "%"}, {"measurement": "Emax", "setting": "human CB2 receptor; upper plateau of [35S]GTPγS binding curve, read-out: Emax (%)", "value": 26, "unit": "%"}, {"measurement": "reduction of the CCI induced hyperalgesia", "setting": "Male Sprague Dawley rats [1]", "value": "significant reduction"}, {"measurement": "reversal of pain threshold of injured paw", "setting": "Male Sprague Dawley rats [2]; 10 mg/kg i.p.", "value": 50, "unit": "%"}, {"measurement": "reversal of pain threshold of injured paw", "setting": "Male Sprague Dawley rats [2]; 30 mg/kg i.p.", "value": 100, "unit": "%"}, {"measurement": "% Survival", "setting": "female BALB/c mice; 20 mg/kg", "value": 90, "unit": "%"}, {"measurement": "Clinical score", "setting": "female BALB/c mice; 20 mg/kg", "value": "3.4 ± 0.7"}, {"measurement": "Percentage change in body weight", "setting": "female BALB/c mice; 20 mg/kg", "value": "−9.6 ± 1.59", "unit": "%"}, {"measurement": "% Survival", "setting": "female BALB/c mice; 40 mg/kg", "value": 100, "unit": "%"}, {"measurement": "Clinical score", "setting": "female BALB/c mice; 40 mg/kg", "value": "3.1 ± 0.6"}, {"measurement": "Percentage change in body weight", "setting": "female BALB/c mice; 40 mg/kg", "value": "−5 ± 2.3", "unit": "%"}, {"measurement": "efficacy in DSS-induced colitis (weight loss, clinical signs or gross pathology)", "setting": "female BALB/c mice; administered intraperitoneally", "value": "modest efficacy"}]}]}
